Measured values from article PMC4457528, “Identification of Novel Small Molecule Inhibitors of Oncogenic RET Kinase” (PLoS ONE, 2015).
Like-named read-outs stand apart in the source and are kept apart here.

Legend:
Assay in all cases: KinomeScan kinase panel, single concentration 10 µM
Assay type in all cases: binding
KinomeScan kinase panel [1] = target: T1, KinomeScan kinase panel (Homo sapiens, UniProt O00750); details: PIK3C2B, 10 µM; read-out: score (%)
T1 construct: purchased DiscoveRx (KinomeScan)

KinomeScan kinase panel [2] = target: T2, KinomeScan kinase panel (Homo sapiens, UniProt P49137); details: MAPKAPK2, 10 µM; read-out: score (%)
T2 construct: purchased DiscoveRx (KinomeScan)

KinomeScan kinase panel [3] = target: T3, KinomeScan kinase panel (Homo sapiens, UniProt Q8IVH8); details: MAP4K3, 10 µM
T3 construct: purchased DiscoveRx (KinomeScan)
T3 sequence (Q8IVH8 1-894): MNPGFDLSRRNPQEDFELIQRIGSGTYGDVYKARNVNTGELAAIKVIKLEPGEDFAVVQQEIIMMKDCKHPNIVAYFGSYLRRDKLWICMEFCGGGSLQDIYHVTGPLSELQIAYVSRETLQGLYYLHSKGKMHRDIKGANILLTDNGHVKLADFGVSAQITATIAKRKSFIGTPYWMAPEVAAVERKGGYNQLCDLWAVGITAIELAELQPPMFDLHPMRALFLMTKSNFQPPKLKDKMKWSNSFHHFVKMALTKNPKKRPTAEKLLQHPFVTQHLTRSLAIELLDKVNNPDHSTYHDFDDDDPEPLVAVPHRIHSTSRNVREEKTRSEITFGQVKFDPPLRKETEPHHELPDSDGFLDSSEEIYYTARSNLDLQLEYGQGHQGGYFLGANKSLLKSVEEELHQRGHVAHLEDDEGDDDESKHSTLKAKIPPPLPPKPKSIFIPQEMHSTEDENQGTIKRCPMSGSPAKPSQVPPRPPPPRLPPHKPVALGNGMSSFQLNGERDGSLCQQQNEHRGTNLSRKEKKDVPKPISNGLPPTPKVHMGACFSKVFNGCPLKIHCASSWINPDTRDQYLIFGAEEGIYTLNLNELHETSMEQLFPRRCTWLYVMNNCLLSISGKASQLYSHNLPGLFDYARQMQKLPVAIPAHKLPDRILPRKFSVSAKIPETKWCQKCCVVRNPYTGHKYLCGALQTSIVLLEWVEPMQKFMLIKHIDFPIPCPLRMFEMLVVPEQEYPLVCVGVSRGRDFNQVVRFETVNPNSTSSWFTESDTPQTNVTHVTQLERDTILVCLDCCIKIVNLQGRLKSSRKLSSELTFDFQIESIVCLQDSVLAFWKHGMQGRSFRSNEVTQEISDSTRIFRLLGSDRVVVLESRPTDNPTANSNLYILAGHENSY

KinomeScan kinase panel [4] = target: T4, KinomeScan kinase panel (Homo sapiens, UniProt Q8TDC3); details: BRSK1, 10 µM; read-out: score (%)
T4 construct: purchased DiscoveRx (KinomeScan)
T4 sequence (Q8TDC3 1-778): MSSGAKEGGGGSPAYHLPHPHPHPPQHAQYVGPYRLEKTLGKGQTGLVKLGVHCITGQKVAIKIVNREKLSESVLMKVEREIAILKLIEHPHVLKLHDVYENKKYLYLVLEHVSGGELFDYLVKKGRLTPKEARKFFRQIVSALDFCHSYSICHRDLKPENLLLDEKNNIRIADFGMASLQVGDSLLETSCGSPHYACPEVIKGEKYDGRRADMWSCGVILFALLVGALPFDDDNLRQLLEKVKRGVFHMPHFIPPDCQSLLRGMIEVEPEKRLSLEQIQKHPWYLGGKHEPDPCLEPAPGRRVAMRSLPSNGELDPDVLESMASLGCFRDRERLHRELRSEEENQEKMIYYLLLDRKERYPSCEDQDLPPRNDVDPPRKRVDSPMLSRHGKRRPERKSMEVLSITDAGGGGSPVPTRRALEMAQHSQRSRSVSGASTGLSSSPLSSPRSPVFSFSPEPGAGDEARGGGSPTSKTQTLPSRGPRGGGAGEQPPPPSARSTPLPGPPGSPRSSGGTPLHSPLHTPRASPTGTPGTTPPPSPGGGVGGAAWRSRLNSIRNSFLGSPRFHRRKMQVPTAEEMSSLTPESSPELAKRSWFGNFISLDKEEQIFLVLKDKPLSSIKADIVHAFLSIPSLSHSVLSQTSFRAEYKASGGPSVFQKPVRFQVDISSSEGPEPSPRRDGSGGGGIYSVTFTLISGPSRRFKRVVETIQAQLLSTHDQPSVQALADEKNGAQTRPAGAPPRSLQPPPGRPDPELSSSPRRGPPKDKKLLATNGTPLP

KinomeScan kinase panel [5] = target: T5, KinomeScan kinase panel (Homo sapiens, UniProt Q8TDX7); details: NEK7, 10 µM; read-out: score (%)
T5 construct: purchased DiscoveRx (KinomeScan)

KinomeScan kinase panel [6] = target: T6, KinomeScan kinase panel (Homo sapiens, UniProt Q9UKI8); details: read-out: score (%)
T6 construct: purchased DiscoveRx (KinomeScan)
T6 sequence (Q9UKI8 1-766): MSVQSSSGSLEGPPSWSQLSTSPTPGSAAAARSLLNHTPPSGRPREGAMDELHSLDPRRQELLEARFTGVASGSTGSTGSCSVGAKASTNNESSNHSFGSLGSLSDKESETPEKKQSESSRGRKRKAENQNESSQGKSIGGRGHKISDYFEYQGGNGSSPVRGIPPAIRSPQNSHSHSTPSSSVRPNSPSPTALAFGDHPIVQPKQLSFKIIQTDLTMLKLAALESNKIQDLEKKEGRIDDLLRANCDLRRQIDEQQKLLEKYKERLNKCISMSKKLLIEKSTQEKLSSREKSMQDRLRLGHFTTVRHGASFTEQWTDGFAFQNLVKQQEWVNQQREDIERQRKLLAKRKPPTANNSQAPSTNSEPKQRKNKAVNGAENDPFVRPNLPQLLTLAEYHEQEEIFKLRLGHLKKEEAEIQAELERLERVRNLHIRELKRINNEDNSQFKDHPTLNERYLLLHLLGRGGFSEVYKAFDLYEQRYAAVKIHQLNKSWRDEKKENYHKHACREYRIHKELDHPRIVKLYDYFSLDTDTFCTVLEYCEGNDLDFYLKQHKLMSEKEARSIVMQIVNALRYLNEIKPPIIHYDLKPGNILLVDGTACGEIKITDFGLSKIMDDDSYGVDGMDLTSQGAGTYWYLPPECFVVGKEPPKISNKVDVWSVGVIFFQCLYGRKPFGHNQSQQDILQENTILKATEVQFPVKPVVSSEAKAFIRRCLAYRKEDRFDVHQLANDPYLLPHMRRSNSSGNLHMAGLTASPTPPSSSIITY

T2 sequence (P49137 whole entry): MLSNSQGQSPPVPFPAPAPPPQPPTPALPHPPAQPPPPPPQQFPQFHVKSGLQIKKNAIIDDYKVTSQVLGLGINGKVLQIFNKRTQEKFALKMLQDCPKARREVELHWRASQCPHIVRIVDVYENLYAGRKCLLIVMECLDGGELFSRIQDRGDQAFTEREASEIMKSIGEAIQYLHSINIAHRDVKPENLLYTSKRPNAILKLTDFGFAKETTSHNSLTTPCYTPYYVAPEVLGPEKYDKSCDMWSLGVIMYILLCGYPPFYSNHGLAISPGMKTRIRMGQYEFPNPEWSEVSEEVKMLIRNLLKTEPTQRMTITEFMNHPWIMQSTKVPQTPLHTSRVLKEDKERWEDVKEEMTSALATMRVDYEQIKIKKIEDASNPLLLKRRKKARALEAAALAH
T5 sequence (Q8TDX7 whole entry): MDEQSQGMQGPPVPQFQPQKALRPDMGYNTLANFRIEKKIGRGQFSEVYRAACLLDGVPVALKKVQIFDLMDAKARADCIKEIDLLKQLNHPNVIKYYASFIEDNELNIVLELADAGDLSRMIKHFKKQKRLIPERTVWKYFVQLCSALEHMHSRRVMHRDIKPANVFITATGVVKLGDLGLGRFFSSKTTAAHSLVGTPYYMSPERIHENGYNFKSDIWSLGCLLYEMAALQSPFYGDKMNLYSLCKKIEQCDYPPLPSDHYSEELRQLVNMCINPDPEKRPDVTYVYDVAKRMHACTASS
T1 sequence (O00750 whole entry): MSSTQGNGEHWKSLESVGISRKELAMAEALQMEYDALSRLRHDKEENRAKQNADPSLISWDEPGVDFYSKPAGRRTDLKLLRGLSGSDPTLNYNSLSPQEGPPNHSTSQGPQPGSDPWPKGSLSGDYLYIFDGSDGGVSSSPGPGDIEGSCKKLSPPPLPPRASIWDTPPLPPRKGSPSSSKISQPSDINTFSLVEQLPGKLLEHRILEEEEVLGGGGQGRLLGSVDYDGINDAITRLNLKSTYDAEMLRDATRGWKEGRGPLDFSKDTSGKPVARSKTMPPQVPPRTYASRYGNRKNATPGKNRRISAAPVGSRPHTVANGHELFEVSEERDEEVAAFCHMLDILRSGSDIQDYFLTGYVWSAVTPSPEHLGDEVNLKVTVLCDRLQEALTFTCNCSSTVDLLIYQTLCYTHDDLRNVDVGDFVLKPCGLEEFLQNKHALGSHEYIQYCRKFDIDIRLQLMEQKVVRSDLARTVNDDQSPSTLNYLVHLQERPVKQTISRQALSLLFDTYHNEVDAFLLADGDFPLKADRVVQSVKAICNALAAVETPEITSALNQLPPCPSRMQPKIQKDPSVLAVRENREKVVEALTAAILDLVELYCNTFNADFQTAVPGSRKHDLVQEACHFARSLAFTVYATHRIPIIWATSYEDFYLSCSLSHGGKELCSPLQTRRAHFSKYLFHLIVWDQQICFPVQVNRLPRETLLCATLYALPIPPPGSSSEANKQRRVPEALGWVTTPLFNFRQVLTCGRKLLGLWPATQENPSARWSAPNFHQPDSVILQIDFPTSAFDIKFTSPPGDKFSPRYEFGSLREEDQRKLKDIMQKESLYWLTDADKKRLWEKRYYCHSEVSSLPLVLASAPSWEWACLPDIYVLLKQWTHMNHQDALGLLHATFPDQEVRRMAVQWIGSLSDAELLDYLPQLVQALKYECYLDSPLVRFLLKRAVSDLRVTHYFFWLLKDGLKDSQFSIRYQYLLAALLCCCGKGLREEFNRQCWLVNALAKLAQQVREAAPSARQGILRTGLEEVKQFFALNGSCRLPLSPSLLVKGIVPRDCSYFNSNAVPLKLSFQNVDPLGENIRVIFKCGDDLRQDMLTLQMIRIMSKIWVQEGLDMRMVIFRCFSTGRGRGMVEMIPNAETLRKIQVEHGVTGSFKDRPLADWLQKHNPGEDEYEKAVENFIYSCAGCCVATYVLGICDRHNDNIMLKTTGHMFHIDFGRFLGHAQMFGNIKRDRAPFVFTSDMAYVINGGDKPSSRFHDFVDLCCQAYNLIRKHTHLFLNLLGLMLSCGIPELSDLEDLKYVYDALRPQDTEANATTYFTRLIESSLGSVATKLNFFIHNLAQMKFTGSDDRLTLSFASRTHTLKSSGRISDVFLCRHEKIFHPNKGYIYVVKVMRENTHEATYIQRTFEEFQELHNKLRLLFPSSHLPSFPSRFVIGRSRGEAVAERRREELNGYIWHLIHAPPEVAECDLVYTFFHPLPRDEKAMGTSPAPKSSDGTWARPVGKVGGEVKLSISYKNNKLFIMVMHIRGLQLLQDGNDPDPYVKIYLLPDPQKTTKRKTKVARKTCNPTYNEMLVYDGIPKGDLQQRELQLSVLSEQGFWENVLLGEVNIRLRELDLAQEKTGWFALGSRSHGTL

Row | remaining binding at 10 µM (KinomeScan kinase panel [6]; TLK1, 10 µM) [%] | SMILES | remaining binding at 10 µM (KinomeScan kinase panel [1]) [%] | remaining binding at 10 µM (KinomeScan kinase panel [2]) [%] | score (%) (KinomeScan kinase panel [3]) | remaining binding at 10 µM (KinomeScan kinase panel [4]) [%] | remaining binding at 10 µM (KinomeScan kinase panel [5]) [%] | remaining binding at 10 µM (KinomeScan kinase panel [6]; kinase TLK1, 10 µM) [%]
1 | – | CCN1CCN(Cc2ccc(NC(=O)c3ccc(C)c(C#Cc4cccnc4)c3)cc2C(F)(F)F)CC1 [XMD15-44] | 100 | > 30 | 2.6 | > 30 | 88 | 93
2 | > 30 | CCN1CCN(Cc2ccc(NC(=O)c3ccc(C)c(/C=C/c4cnc5[nH]ccc5c4Cl)c3)cc2C(F)(F)F)CC1 [HG-6-63-01, (E)-3-(2-(4-chloro-1H-pyrrolo[2,3-b]pyridin-5-yl)vinyl)-N-(4-((4-ethylpiperazin-1-yl)methyl)-3-(trifluoromethyl)phenyl)-4-methylbenzamide] | > 30 | > 30 | 4.2 | > 30 | > 30 | –
3 | – | CCN1CCN(Cc2ccc(NC(=O)c3ccc(C)c(NC(=O)c4cncc(-c5cccs5)c4)c3)cc2C(F)(F)F)CC1 [ALW-II-41-27] | > 30 | > 30 | 20 | > 30 | > 30 | > 30
